{"source": "patent US9234200B2", "about": "“Oligonucleotide, glucocorticoid sensitivity enhancer, pharmaceutical composition, and expression vector” (National University Corporation Tokyo University of …, priority 2011, dated 2016)", "key": {"[1]": {"tested_on": "Raji cells", "assay": "BrdU incorporation assay, glucocorticoid sensitivity of oligonucleotide 4-expressing Raji cells", "assay_type": "cell-based, human", "details": "for BrdU incorporation: absorbance", "experimental": "In order to examine the glucocorticoid sensitivity of the oligonucleotide 4-expressin Raji cells, BrdU incorporation assay was performed in the same manner as in Example 2, and cell proliferation was quantified. The concentration of dexamethasone was set to 0 μM (no addition) or 5 μM. Each experiment was repeated in triplicate. The values shown in Table 13 are average of thereof."}, "[2]": {"tested_on": "GRα and GRβ", "assay": "GRα and GRβ expression levels in oligonucleotide 4-expressing Raji cells"}, "[3]": {"tested_on": "GRα and GRβ", "assay": "GRα and GRβ expression levels in Raji cells transfected with oligonucleotide (RT-PCR and PCR);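 on GAPDH: mean of three independent experiments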", "assay_type": "cell-based, human", "experimental": "Raji cells (manufactured by Japan Health Science Foundation) derived from human Burkitt's lymphoma were used in experiments.\nRaji cells were cultured and maintained in RPMI1640 medium (manufactured by Gibco) at 37° C. in an atmosphere of 5% CO2, the RPMI1640 medium being supplemented with 10% fetal bovine serum (FBS) (manufactured by Filtoron), 100 U/ml penicillin, and 100 μg/ml streptomycin.\n2×10^6 Raji cells were washed with phosphate-buffered saline (PBS) and suspended in 100 μl transfection reagent of an Amaxa cell line Nucleofector Kit V (manufactured by Lonza).\nAfter the Raji cells were cultured in the above-described medium for 24 hours, the Raji cells were used for subsequent experiments.\nThe expression level of glyceraldehyde-3-phosphate dehydrogenase (GAPDH) was determined as an endogenous control.\nAfter the Raji cells were washed with PBS, RNA was extracted using a FastPure RNA Kit (manufactured by Takara Bio Inc.), and reverse transcription was performed using a PrimeScript 1st strand cDNA synthesis kit (manufactured by Takara Bio Inc.). The obtained cDNA was amplified using Platinum Taq DNA polymerase (manufactured by Invitrogen) and PCR primers (having the base sequences shown in Table 2) specific for the gene of interest. The PCR conditions included: performing initial denaturation at 94° C. for 2 minutes; performing 35 cycles of denaturation (94° C. for 30 seconds), annealing (55° C. for 30 seconds), and extension (72° C. for 1 minute); and then performing final extension at 72° C. for 4 minutes.\nAfter the PCR was performed, DNA was separated by […] electrophoresis on a 2% agarose gel containing ethidium bromide, and the intensity of bands was quantified using an image analyzer GEL PRINT 2000i/VGA (manufactured by Genomic Solutions)."}, "[4]": {"tested_on": "Raji cells", "assay": "BrdU incorporation assay, glucocorticoid sensitivity of oligonucleotide-transfected Raji cells", "assay_type": "cell-based, human", "details": "for BrdU incorporation: absorbance at 450 nm", "experimental": "In order to examine the change of glucocorticoid sensitivity of cells caused by introduction of oligonucleotide 1, cell proliferation was quantified by a 5-bromo-2′-deoxyuridine (BrdU) incorporation assay. Dexamethasone (manufactured by Biomol) was used as a glucocorticoid. The concentration of dexamethasone was set to varied concentrations of 0 μM (no addition), 0.1 μM, 0.5 μM, 1 μM, 5 μM, and 10 μM.\nRaji cells were cultured in serum-free RPMI1640 medium for 12 hours to synchronize the cell cycle, and then re-suspended in RPMI1640 medium supplemented with serum and inoculated onto a 96-well plate.\nAfter dexamethasone was added, the cells were cultured for 22 hours. Then, BrdU was added thereto, and the cells were cultured for another 2 hours. After centrifugation, the supernatant was discarded, and the cells were dried and fixed. The fixed cells were allowed to react with a peroxidase-labeled anti-BrdU antibody for 1 hour at room temperature. Subsequently, the cells were washed three times with PBS, and tetramethylbenzidine was added thereto. When noticeable coloring was observed, the reaction was stopped by adding H2SO4 (1M). After vigorous agitation, absorbance at 450 nm was measured using a plate reader.\nUsing the Raji cells to which dexamethasone was not added as a control, cell proliferation inhibitory rate (%) was calculated based on the relative ratio of the obtained absorbance. Here, statistical significance was assessed with one-way analysis of variance and multiple comparison. Tukey's multiple comparison was used for the multiple comparison. A significance level of P<0.05 (vs. no addition of oligonucleotide) was regarded as a significant difference.\nBrdU incorporation assay was performed in the same manner as in the above, and alternation of the glucocorticoid sensitivity of the cells caused by the introduction of any one of oligonucleotides 2 to 5 was examined. Each experiment was carried out in quadruplicate. The values shown in Table 7 are average values thereof."}, "[5]": {"details": "Raji cells constitutively expressing oligonucleotide 4"}, "[6]": {"details": "expression level (band intensity), Raji cells constitutively expressing oligonucleotide 4 (retrovirus vector)"}, "[7]": {"details": "expression level (band intensity), Raji cells constitutively expressing oligonucleotide 4 (retrovirus vector), listed as oligonucleotide 4"}, "[8]": {"details": "expression level (band intensity), oligonucleotide 300 nM by electroporation, 24 h"}}, "note": "Like-named read-outs stand apart in the source and are kept apart here."}
{"molecule": "Oligonucleotide 4: an oligonucleotide having a base sequence represented by SEQ ID NO: 4 (5′-TTTGTCCCCATTATATAGCATTT-3′) (listed as DNA, chemistry not given here)", "values": [{"measurement": "BrdU incorporation", "setting": "[1]; oligonucleotide 4-expressing Raji cell, dexamethasone 0 μM", "result": 1.13}, {"measurement": "glucocorticoid sensitivity", "setting": "[1]; constitutive expression of oligonucleotide 4 in Raji cells, in words", "result": "increases glucocorticoid sensitivity"}, {"measurement": "GRα/GAPDH", "setting": "[2]; [5]", "result": 0.747}, {"measurement": "GRβ/GAPDH", "setting": "[2]; [5]", "result": 0.290}, {"measurement": "GAPDH", "setting": "[2]; expression level (band intensity), endogenous control, Raji cells constitutively expressing oligonucleotide 4 (retrovirus vector)", "result": 6428.135}, {"measurement": "GRα", "setting": "[2]; [6]", "result": 4803.456}, {"measurement": "GRβ", "setting": "[2]; [6]", "result": 1866.325}, {"measurement": "GRα", "setting": "[2]; [7]", "result": "increases the expression level of GRα"}, {"measurement": "GRβ", "setting": "[2]; [7]", "result": "decreases the expression level of GRβ"}, {"measurement": "GAPDH", "setting": "[3]; expression level (band intensity), endogenous control, oligonucleotide 300 nM by electroporation, 24 h", "result": 2991.776}, {"measurement": "GRα", "setting": "[3]; [8]", "result": 3157.440}, {"measurement": "GRβ", "setting": "[3]; [8]", "result": 4592.806}, {"measurement": "GRα/GAPDH", "setting": "[3]; oligonucleotide 300 nM", "result": 1.057}, {"measurement": "GRβ/GAPDH", "setting": "[3]; oligonucleotide 300 nM", "result": 1.533}, {"measurement": "cell proliferation inhibitory rate", "setting": "[4]; dexamethasone 0.1 μM, quadruplicate (Table 7), label dexamethasone = no oligonucleotide transfected", "result": 12.464, "unit": "%"}, {"measurement": "cell proliferation inhibitory rate", "setting": "[4]; dexamethasone 0.5 μM, quadruplicate (Table 7), label dexamethasone = no oligonucleotide transfected", "result": 23.397, "unit": "%"}, {"measurement": "cell proliferation inhibitory rate", "setting": "[4]; dexamethasone 1 μM, quadruplicate (Table 7), label dexamethasone = no oligonucleotide transfected", "result": 28.863, "unit": "%"}, {"measurement": "cell proliferation inhibitory rate", "setting": "[4]; dexamethasone 5 μM, quadruplicate (Table 7), label dexamethasone = no oligonucleotide transfected", "result": 28.061, "unit": "%"}]}
{"molecule": "C[C@@H]1C[C@H]2[C@@H]3CCC4=CC(=O)C=C[C@]4(C)[C@@]3(F)[C@@H](O)C[C@]2(C)[C@@]1(O)C(=O)CO", "note": "[dexamethasone, reference compound]", "values": [{"measurement": "BrdU incorporation", "setting": "[1]; dexamethasone 5 μM, label dexamethasone = Control Raji cell", "result": 1.07}, {"measurement": "inhibition at 0.1 µM", "setting": "[4]; Homo sapiens, Raji, dexamethasone 0.1 μM vs no dexamethasone, triplicate, label dexamethasone = no oligonucleotide introduced, read-out: cell proliferation inhibitory rate", "result": 13.4, "unit": "%"}, {"measurement": "inhibition at 0.1 µM", "setting": "[4]; Homo sapiens, Raji, dexamethasone 0.1 μM, quadruplicate (Table 7), label dexamethasone = no oligonucleotide transfected, read-out: cell proliferation inhibitory rate", "result": 13.2, "unit": "%"}, {"measurement": "inhibition at 0.5 µM", "setting": "[4]; Homo sapiens, Raji, dexamethasone 0.5 μM vs no dexamethasone, triplicate, label dexamethasone = no oligonucleotide introduced, read-out: cell proliferation inhibitory rate", "result": 16.2, "unit": "%"}, {"measurement": "inhibition at 0.5 µM", "setting": "[4]; Homo sapiens, Raji, dexamethasone 0.5 μM, quadruplicate (Table 7), label dexamethasone = no oligonucleotide transfected, read-out: cell proliferation inhibitory rate", "result": 17.6, "unit": "%"}, {"measurement": "inhibition at 1 µM", "setting": "[4]; Homo sapiens, Raji, dexamethasone 1 μM vs no dexamethasone, triplicate, label dexamethasone = no oligonucleotide introduced, read-out: cell proliferation inhibitory rate", "result": 12.6, "unit": "%"}, {"measurement": "inhibition at 1 µM", "setting": "[4]; Homo sapiens, Raji, dexamethasone 1 μM, quadruplicate (Table 7), label dexamethasone = no oligonucleotide transfected, read-out: cell proliferation inhibitory rate", "result": 22.2, "unit": "%"}, {"measurement": "inhibition at 5 µM", "setting": "[4]; Homo sapiens, Raji, dexamethasone 5 μM vs no dexamethasone, triplicate, label dexamethasone = no oligonucleotide introduced, read-out: cell proliferation inhibitory rate", "result": 23.3, "unit": "%"}, {"measurement": "inhibition at 5 µM", "setting": "[4]; Homo sapiens, Raji, dexamethasone 5 μM, quadruplicate (Table 7), label dexamethasone = no oligonucleotide transfected, read-out: cell proliferation inhibitory rate", "result": 21.7, "unit": "%"}, {"measurement": "inhibition at 10 µM", "setting": "[4]; Homo sapiens, Raji, dexamethasone 10 μM vs no dexamethasone, triplicate, label dexamethasone = no oligonucleotide introduced, read-out: cell proliferation inhibitory rate", "result": 23.9, "unit": "%"}, {"measurement": "BrdU incorporation", "setting": "[4]; dexamethasone 0.1 μM, triplicate, label dexamethasone = no oligonucleotide introduced", "result": 0.475}, {"measurement": "BrdU incorporation", "setting": "[4]; dexamethasone 0.5 μM, triplicate, label dexamethasone = no oligonucleotide introduced", "result": 0.461}, {"measurement": "BrdU incorporation", "setting": "[4]; dexamethasone 1 μM, triplicate, label dexamethasone = no oligonucleotide introduced", "result": 0.479}, {"measurement": "BrdU incorporation", "setting": "[4]; dexamethasone 5 μM, triplicate, label dexamethasone = no oligonucleotide introduced", "result": 0.422}, {"measurement": "BrdU incorporation", "setting": "[4]; dexamethasone 10 μM, triplicate, label dexamethasone = no oligonucleotide introduced", "result": 0.418}]}
